System: N2a Neuroblastoma Cells
Experiment: Cytotoxicity in N2a neuroblastoma cells (CellTiter 96 AQueous One)
Format: cell-based
Conditions: all concentrations tested (1-50 μM)
Procedure: 2×10^4 N2a cells were plated in each well of a 96-well cell culture plate containing 100 pi EMEM (Gibco), supplemented with 10% FBS (N2a growth medium), and were incubated at 37° C. for 48 hours. On the day of treatment, stock solutions of […] of Compound I-63 in ethanol were further diluted with N2a growth medium to obtain Compound I-63-containing N2a medium with 50 μM, 10 μM, 5 μM and 1 μM Compound I-63. The final concentration of ethanol in all media dilutions was 1%, and therefore 1% ethanol was added to the 0 μM Compound I-63 (untreated) control. The media dilutions were applied to the N2a cells (100 µl per well) and incubated at 37° C. for 4 hours or 24 hours. At the end of the treatment period, cell media was removed and 100 μl of pre-warmed phenol red-free N2a growth media was added to each well. 20 µl of the CellTiter 96® AQueous One Solution (Promega) was added to each well and the dish was incubated at 37° C. for 1-4 hours until visible reddish color develops. The dish was read at a wavelength of 490 nm using a plate reader. N2a cells were grown in 96-well dishes and were treated for 4 hours (♦) or 24 hours (i) with increasing concentrations of Compound I-63. Cell survival was assayed using the CellTiter 96® AQueous One Solution (Promega) using the manufacturer's directions. […]

For `CCCCCCCCCCCCCCCCCCCC(=O)NCCc1c[nH]c2ccc(O)cc12` [Compound I-63, N-(2-(5-hydroxy-1H-indol-3-yl)ethyl)icosanamide], the cell survival (4 hours) was “over 85%” and the cell survival (24 hours) was “over 85%”.
